Measured values taken from patent US11213499B1, “Use of 3,3′-diselenodipropionic acid (DSePA) as an anticancer agent” (Secretary, Department of Atomic Energy, priority 2020, dated 2022).

Key:
human A549 xenograft = assay: Anti-tumor effect in human A549 xenograft model; format: in vivo; conditions: for mortality: study period of 30 days
Experimental: These xenografts representative of NSCLC and CML respectively are considered to be highly aggressive and resistant to chemotherapy treatment. Therefore, any new chemotherapy agent against these cancers is very much sought. For the experiment, a total of 12 mice bearing A549 or K562 tumors of volume in the range of ˜50 mm^3 were divided into two groups (I & II), each group comprising of six mice. […] The group II was administered DSePA daily dissolved in sterile saline through oral route at a dosage of 1 mg/Kg body weight. The tumor volume and body weight of mice from each group were monitored daily for a total period of 30 days from the day of start. The animals were also checked for mortality if any throughout the study period. The experiment in A549 tumor was repeated three times (n=18 for each group) and the experiment in K562 tumor was repeated two times (n=12 for each group). […] This is the first study to show the anticancer activity of DSePA per se using xenograft model of human lung cancer (A549) and human leukemia (K562) cells in mice. Discovery of the application of the anticancer activity of DSePA is a novel invention in context of its probable usage in treatment for lung and leukemia cancer. More specifically the invention proposes a treatment regime and route of administering DSePA to inhibit the growth of human NSCLC (A549) and CML (K562).
For the optimization of the oral dosage of DSePA, a total of 24 mice bearing A549 or K562 xenograft of volume in the range of ˜50 mm^3 were divided into four groups (I-IV), each group comprising of six mice. […] The groups II, III and IV were administered DSePA dissolved in sterile saline through oral route at the dosage of 1, 2.5 and 5 mg/kg body weight respectively. The administration of DSePA was performed daily for 4 weeks. The tumor volume and body weight of mice from each group were monitored daily for a total period of 30 days from the day of start. The animals were also checked for mortality if any throughout the study period.
Animal maintenance—All animal studies were approved by the Institutional Animal Ethics Committee. Animals were housed under standard conditions (20±2° C., 65-70% humidity, 12 h/12 h day/night cycle, balanced laboratory diet and tap water ad libitum.
Xenograft tumor model-A549 and K562 tumor models were developed by Anticancer Drug Screening Facility of Advanced Centre for Treatment, Research and Education in Cancer (ACTREC), India. Briefly, Male/female NOD-SCID aged 6-7 weeks were housed in the laboratory animal facility of ACTREC. Donor mice carrying K562 or A549 xenografts were developed by injecting 2×10^6 cells in 100 μl of DMEM/RPMI, subcutaneously in their right flank. When tumors attained the size of approximately 2000 mm^3, the animals were sacrificed. Tumors were obtained and further cut into 2-3 mm fragments and implanted subcutaneously in the right flank of 6-7 weeks old recipient SCID mice. Tumors were allowed to grow to a size of approximately 50 mm^3 following which animals were divided into groups of six animals each for evaluation. A fresh DSePA solution was prepared by dissolution in sterile saline before each administration by intraperitoneal/oral route. The tumor efficacy of DSePA was determined by monitoring parameters like tumor volume and T/C. Tumors were assumed spherical and volume was calculated using following equations (1 & 2): […]
Where d1 (mm) and d2 (mm) are diameters measured in two perpendicular planes. T/C is defined as the ratio of the mean tumor volume of DSePA treated groups with the mean tumor volume of control group on the day of observation.

[1] = rat; cited from earlier work
[2] = 1 mg/kg body weight daily oral, day 1
[3] = 1 mg/kg body weight daily oral, day 5
[4] = 1 mg/kg body weight daily oral, day 9
[5] = 1 mg/kg body weight daily oral, day 12
[6] = 1 mg/kg body weight daily oral, day 15
[7] = 1 mg/kg body weight daily oral, day 18
[8] = 1 mg/kg body weight daily oral, day 21
[9] = 1 mg/kg body weight daily oral, day 24
[10] = 1 mg/kg body weight daily oral, day 27
[11] = 1 mg/kg body weight daily oral, day 31
[12] = 2.5 mg/kg body weight daily oral, day 1
[13] = 2.5 mg/kg body weight daily oral, day 5
[14] = 2.5 mg/kg body weight daily oral, day 9
[15] = 2.5 mg/kg body weight daily oral, day 12
[16] = 2.5 mg/kg body weight daily oral, day 15
[17] = 2.5 mg/kg body weight daily oral, day 18
[18] = 2.5 mg/kg body weight daily oral, day 21
[19] = 2.5 mg/kg body weight daily oral, day 24
[20] = 2.5 mg/kg body weight daily oral, day 27
[21] = 2.5 mg/kg body weight daily oral, day 31
[22] = 5 mg/kg body weight daily oral, day 1
[23] = 5 mg/kg body weight daily oral, day 5
[24] = 5 mg/kg body weight daily oral, day 9
[25] = 5 mg/kg body weight daily oral, day 12
[26] = 5 mg/kg body weight daily oral, day 15
[27] = 5 mg/kg body weight daily oral, day 18
[28] = 5 mg/kg body weight daily oral, day 21
[29] = 5 mg/kg body weight daily oral, day 24
[30] = 5 mg/kg body weight daily oral, day 27
[31] = 5 mg/kg body weight daily oral, day 31

O=C(O)CC[Se][Se]CCC(=O)O [DSePA, 3,3′-diselenodipropionic acid]
tumor growth inhibition vs control (human A549 xenograft; 1 mg/Kg body weight daily oral, three independent experiments): significantly (P<0.05) inhibited the growth
overall reduction (relative tumor volume vs tumor control) (human A549 xenograft; 1 mg/Kg orally daily, end of study period (30 days), n=18, P=0.0009): ~2 folds
mortality (human A549 xenograft; 1 mg/Kg orally daily, three independent studies): did not show any mortality
% S (Survival) (human A549 xenograft; [2]): 100%
RTV (Relative Tumor Volume) (human A549 xenograft; [2]): 1
T/C (T (test)/C (control)) (human A549 xenograft; [2]): 1
% S (Survival) (human A549 xenograft; [3]): 100%
RTV (Relative Tumor Volume) (human A549 xenograft; [3]): 1.23
T/C (T (test)/C (control)) (human A549 xenograft; [3]): 0.98
% S (Survival) (human A549 xenograft; [4]): 100%
RTV (Relative Tumor Volume) (human A549 xenograft; [4]): 1.64
T/C (T (test)/C (control)) (human A549 xenograft; [4]): 0.98
% S (Survival) (human A549 xenograft; [5]): 100%
RTV (Relative Tumor Volume) (human A549 xenograft; [5]): 1.83
T/C (T (test)/C (control)) (human A549 xenograft; [5]): 0.87
% S (Survival) (human A549 xenograft; [6]): 100%
RTV (Relative Tumor Volume) (human A549 xenograft; [6]): 1.80
T/C (T (test)/C (control)) (human A549 xenograft; [6]): 0.76
% S (Survival) (human A549 xenograft; [7]): 100%
RTV (Relative Tumor Volume) (human A549 xenograft; [7]): 2.36
T/C (T (test)/C (control)) (human A549 xenograft; [7]): 0.71
% S (Survival) (human A549 xenograft; [8]): 100%
RTV (Relative Tumor Volume) (human A549 xenograft; [8]): 2.47
T/C (T (test)/C (control)) (human A549 xenograft; [8]): 0.68
% S (Survival) (human A549 xenograft; [9]): 100%
RTV (Relative Tumor Volume) (human A549 xenograft; [9]): 2.66
T/C (T (test)/C (control)) (human A549 xenograft; [9]): 0.52
% S (Survival) (human A549 xenograft; [10]): 100%
RTV (Relative Tumor Volume) (human A549 xenograft; [10]): 2.94
T/C (T (test)/C (control)) (human A549 xenograft; [10]): 0.47
% S (Survival) (human A549 xenograft; [11]): 100%
RTV (Relative Tumor Volume) (human A549 xenograft; [11]): 3.70
T/C (T (test)/C (control)) (human A549 xenograft; [11]): 0.45
% S (Survival) (human A549 xenograft; [12]): 100%
RTV (Relative Tumor Volume) (human A549 xenograft; [12]): 1
T/C (T (test)/C (control)) (human A549 xenograft; [12]): 1
% S (Survival) (human A549 xenograft; [13]): 100%
RTV (Relative Tumor Volume) (human A549 xenograft; [13]): 0.99
T/C (T (test)/C (control)) (human A549 xenograft; [13]): 0.79
% S (Survival) (human A549 xenograft; [14]): 100%
RTV (Relative Tumor Volume) (human A549 xenograft; [14]): 1.10
T/C (T (test)/C (control)) (human A549 xenograft; [14]): 0.66
% S (Survival) (human A549 xenograft; [15]): 100%
RTV (Relative Tumor Volume) (human A549 xenograft; [15]): 1.25
T/C (T (test)/C (control)) (human A549 xenograft; [15]): 0.59
% S (Survival) (human A549 xenograft; [16]): 100%
RTV (Relative Tumor Volume) (human A549 xenograft; [16]): 1.03
T/C (T (test)/C (control)) (human A549 xenograft; [16]): 0.43
% S (Survival) (human A549 xenograft; [17]): 100%
RTV (Relative Tumor Volume) (human A549 xenograft; [17]): 1.31
T/C (T (test)/C (control)) (human A549 xenograft; [17]): 0.39
% S (Survival) (human A549 xenograft; [18]): 100%
RTV (Relative Tumor Volume) (human A549 xenograft; [18]): 1.40
T/C (T (test)/C (control)) (human A549 xenograft; [18]): 0.38
% S (Survival) (human A549 xenograft; [19]): 100%
RTV (Relative Tumor Volume) (human A549 xenograft; [19]): 1.81
T/C (T (test)/C (control)) (human A549 xenograft; [19]): 0.35
% S (Survival) (human A549 xenograft; [20]): 100%
RTV (Relative Tumor Volume) (human A549 xenograft; [20]): 1.96
T/C (T (test)/C (control)) (human A549 xenograft; [20]): 0.31
% S (Survival) (human A549 xenograft; [21]): 100%
RTV (Relative Tumor Volume) (human A549 xenograft; [21]): 2.84
T/C (T (test)/C (control)) (human A549 xenograft; [21]): 0.35
% S (Survival) (human A549 xenograft; [22]): 100%
RTV (Relative Tumor Volume) (human A549 xenograft; [22]): 1
T/C (T (test)/C (control)) (human A549 xenograft; [22]): 1
% S (Survival) (human A549 xenograft; [23]): 100%
RTV (Relative Tumor Volume) (human A549 xenograft; [23]): 0.94
T/C (T (test)/C (control)) (human A549 xenograft; [23]): 0.75
% S (Survival) (human A549 xenograft; [24]): 100%
RTV (Relative Tumor Volume) (human A549 xenograft; [24]): 1.29
T/C (T (test)/C (control)) (human A549 xenograft; [24]): 0.76
% S (Survival) (human A549 xenograft; [25]): 100%
RTV (Relative Tumor Volume) (human A549 xenograft; [25]): 1.30
T/C (T (test)/C (control)) (human A549 xenograft; [25]): 0.62
% S (Survival) (human A549 xenograft; [26]): 100%
RTV (Relative Tumor Volume) (human A549 xenograft; [26]): 1.19
T/C (T (test)/C (control)) (human A549 xenograft; [26]): 0.50
% S (Survival) (human A549 xenograft; [27]): 100%
RTV (Relative Tumor Volume) (human A549 xenograft; [27]): 2.22
T/C (T (test)/C (control)) (human A549 xenograft; [27]): 0.67
% S (Survival) (human A549 xenograft; [28]): 100%
RTV (Relative Tumor Volume) (human A549 xenograft; [28]): 2.34
T/C (T (test)/C (control)) (human A549 xenograft; [28]): 0.65
% S (Survival) (human A549 xenograft; [29]): 100%
RTV (Relative Tumor Volume) (human A549 xenograft; [29]): 2.94
T/C (T (test)/C (control)) (human A549 xenograft; [29]): 0.57
% S (Survival) (human A549 xenograft; [30]): 100%
RTV (Relative Tumor Volume) (human A549 xenograft; [30]): 2.92
T/C (T (test)/C (control)) (human A549 xenograft; [30]): 0.47
% S (Survival) (human A549 xenograft; [31]): 100%
RTV (Relative Tumor Volume) (human A549 xenograft; [31]): 5.30
T/C (T (test)/C (control)) (human A549 xenograft; [31]): 0.65
tumor growth inhibition vs control (human A549 xenograft; dosage optimization, 1 mg/kg body weight daily oral for 4 weeks): significantly (P<0.05) inhibited the growth of A549 tumor from day 21 onwards
tumor growth inhibition vs control (human A549 xenograft; dosage optimization, 2.5 mg/kg body weight daily oral for 4 weeks): significantly (P<0.05) inhibited the growth of A549 tumor from day 21 onwards
tumor growth inhibition vs control (human A549 xenograft; dosage optimization, 5 mg/kg body weight daily oral, experimental end point (31st day)): did not show any significant suppression of A549 tumor
mortality (human A549 xenograft; dosage optimization, 1, 2.5 and 5 mg/kg daily oral): did not show any mortality
T/C achieved (human A549 xenograft; lung model, 1 mg/kg body weight daily oral): ≤ 0.42
minimum dosage to achieve optimum efficacy (human A549 xenograft; oral daily): 1 mg/kg body weight
estimated median oral Lethal dose (LD50) cut-off [1]: 25 mg/kg
